Source: PMC8348686, “The Pharmacological Profile of Second Generation Pyrovalerone Cathinones and Related Cathinone Derivative” (International Journal of Molecular Sciences, 2021)
“Also recorded” adds a separate entry of the source.

Assays:
hSERT [1] = target: T1, hSERT (Homo sapiens, UniProt P31645); assay: Transporter-mediated monoamine efflux, [3H]-5-HT preloaded HEK293 cells; assay type: cell-based; set-up: expressed in transfected cells; host or cells: HEK293; details: 100 μM of drug, 15 min, HEK293 hSERT preloaded with [3H]-5-HT; data for some pyrovalerones adapted from [13]
T1 sequence (P31645 whole entry): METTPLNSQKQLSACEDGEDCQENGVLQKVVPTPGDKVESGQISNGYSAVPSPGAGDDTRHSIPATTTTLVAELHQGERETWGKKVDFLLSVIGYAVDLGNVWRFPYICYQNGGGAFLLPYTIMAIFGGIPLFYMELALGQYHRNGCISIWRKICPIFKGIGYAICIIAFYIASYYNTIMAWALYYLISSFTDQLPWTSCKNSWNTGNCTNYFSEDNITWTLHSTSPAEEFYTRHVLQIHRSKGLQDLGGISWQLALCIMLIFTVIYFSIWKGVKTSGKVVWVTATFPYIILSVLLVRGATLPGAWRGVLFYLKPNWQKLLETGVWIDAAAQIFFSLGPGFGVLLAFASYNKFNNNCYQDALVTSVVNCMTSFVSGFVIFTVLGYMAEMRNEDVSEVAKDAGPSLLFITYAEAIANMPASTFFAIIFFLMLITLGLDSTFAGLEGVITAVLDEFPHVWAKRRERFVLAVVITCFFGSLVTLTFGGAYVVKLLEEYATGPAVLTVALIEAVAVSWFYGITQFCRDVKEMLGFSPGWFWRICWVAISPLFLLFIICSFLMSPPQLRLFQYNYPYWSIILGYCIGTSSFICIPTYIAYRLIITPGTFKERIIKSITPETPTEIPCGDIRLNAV
Experimental: (§1) Monoamine efflux was assessed using human embryonic kidney 293 (HEK293) cells (Invitrogen, Zug, Switzerland) stably transfected with the human norepinephrine (hNET), dopamine (hDAT), or serotonin (hSERT) uptake transporters. In summary, the cells were seeded in poly-D-lysine coated XF24 cell culture microplates (Seahorse Biosciences, North Billerica, MA, USA) and cultured overnight at a concentration of 100,000 cells per well.
(§2) The cells were then exposed to Krebs–HEPES release buffer (85 μL/well) comprised of 130 mM NaCl, 1.3 mM KCl, 2.2 mM CaCl2, 1.2 mM MgSO4, 1.2 mM KH2PO4, 10 mM HEPES, and 10 mM D-glucose at a pH of 7.5, which also contained 10 nM radiolabelled neurotransmitter ([^3H]-5-HT for SERT, [^3H]-DA for DAT or [^3H]-NE for NET), 1 μM unlabelled neurotransmitter (DA or NE, only), 10 μM pargyline, and 0.2 mg/mL of ascorbic acid. This enabled the loading of the cells with their respective neurotransmitters via the uptake transporters. Afterwards, the release buffer was replaced by fresh buffer to wash the cells twice and the cells were then incubated for 15 min (DAT and SERT) or 45 min (NET) to 100 μM of test drugs dissolved in 1 mL of Krebs–HEPES buffer while shaking at 300 rpm and 37 °C. Termination of the release reaction occurred by removing the buffer from the cells and washing them with ice-cold buffer. Next, 50 μL of lysis buffer was added to the cells for 1 h in order to lyse the cells. Thereafter, 40 μL of the lysed cell mixture was transferred into scintillation vials (Perkin–Elmer, Schwerzenbach, Switzerland) containing 3 mL of scintillation fluid (Ultimagold, Perkin–Elmer, Schwerzenbach, Switzerland) and measured using liquid scintillation (as previously described in Section 2.2).
(§3) To quantify the “pseudo efflux” caused by the non-transporter mediated monoamine release and successive reuptake inhibition, each monoamine efflux experiment included a control where the cells were exposed to each respective transporter blocker (nisoxetine for NET, mazindol for DAT, and citalopram for SERT). The radioactivity inside the cells without any drug was set as 100%. The nonspecific release was subtracted from the total observed release at 100 μM of each examined drug to calculate the specific transporter mediated release. One single concentration of the test drugs was used (100 μM) and release exposure durations were set based on previously evaluated kinetics of the release-over-time curves.
(§4) An ANOVA followed by a Holm–Sidak test was conducted to compare each drug’s specific transporter-mediated efflux based on at least three independent experiments to the control condition.

hDAT [2] = target: T2, hDAT (Homo sapiens, UniProt Q01959); assay: Transporter-mediated monoamine efflux, [3H]-DA preloaded HEK293 cells; assay type: cell-based; set-up: expressed in transfected cells; host or cells: HEK293; details: 100 μM of drug, 15 min, HEK293 hDAT preloaded with [3H]-DA; data for some pyrovalerones adapted from [13]
T2 sequence (Q01959 whole entry): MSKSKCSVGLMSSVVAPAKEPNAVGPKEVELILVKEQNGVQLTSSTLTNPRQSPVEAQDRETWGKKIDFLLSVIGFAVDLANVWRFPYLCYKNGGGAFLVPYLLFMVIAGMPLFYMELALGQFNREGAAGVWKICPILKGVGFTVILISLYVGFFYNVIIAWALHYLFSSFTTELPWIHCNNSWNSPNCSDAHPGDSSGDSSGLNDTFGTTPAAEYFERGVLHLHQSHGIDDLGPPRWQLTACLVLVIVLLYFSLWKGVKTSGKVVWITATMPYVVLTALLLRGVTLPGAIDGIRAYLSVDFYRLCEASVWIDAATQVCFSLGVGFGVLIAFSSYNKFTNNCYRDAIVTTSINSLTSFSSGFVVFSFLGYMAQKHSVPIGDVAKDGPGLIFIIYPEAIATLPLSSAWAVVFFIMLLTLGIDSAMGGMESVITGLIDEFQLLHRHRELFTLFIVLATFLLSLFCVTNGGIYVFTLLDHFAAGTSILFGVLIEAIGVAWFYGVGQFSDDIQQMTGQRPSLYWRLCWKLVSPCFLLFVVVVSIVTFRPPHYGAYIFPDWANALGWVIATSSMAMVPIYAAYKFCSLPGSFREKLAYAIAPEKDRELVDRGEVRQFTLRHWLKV
Experimental: as §1, §2, §3, §4

h5-HT2A receptor [3] = target: T3, h5-HT2A receptor (Homo sapiens, UniProt P28223); set-up: expressed in transfected cells; host or cells: HEK293 cell preparations; method as in Rickli et al. (2015); details: read-out: h5-HT2A Activation Potency EC50 ± SD; ref Rickli et al. (2015); cited from earlier work
T3 sequence (P28223 whole entry): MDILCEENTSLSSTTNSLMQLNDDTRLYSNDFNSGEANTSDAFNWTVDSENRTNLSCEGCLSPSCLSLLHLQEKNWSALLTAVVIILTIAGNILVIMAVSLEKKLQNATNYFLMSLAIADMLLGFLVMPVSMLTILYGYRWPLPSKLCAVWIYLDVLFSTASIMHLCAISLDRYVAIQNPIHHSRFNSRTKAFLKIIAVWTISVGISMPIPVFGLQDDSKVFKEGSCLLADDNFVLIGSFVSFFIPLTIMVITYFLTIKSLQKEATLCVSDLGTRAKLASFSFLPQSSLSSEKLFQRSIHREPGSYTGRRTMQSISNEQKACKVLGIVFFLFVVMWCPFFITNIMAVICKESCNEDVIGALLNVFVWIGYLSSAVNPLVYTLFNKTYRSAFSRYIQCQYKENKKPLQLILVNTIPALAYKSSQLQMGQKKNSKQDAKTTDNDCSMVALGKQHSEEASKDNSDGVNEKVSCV

h5-HT2A receptor [4] = target: T3, h5-HT2A receptor; set-up: expressed in transfected cells; host or cells: HEK293 cell preparations; details: read-out: h5-HT2A Receptor Binding Ki ± SD; [3H]-Ketanserin; ref Rickli et al. (2015); cited from earlier work
h5-HT2B receptor = target: T4, h5-HT2B receptor (Homo sapiens, UniProt P41595); set-up: method as in Rickli et al. (2015); details: read-out: h5-HT2B Activation Potency EC50 ± SD; ref Rickli et al. (2015); cited from earlier work
T4 construct: expressed in transfected cells; host or cells: HEK293
T4 sequence (P41595 whole entry): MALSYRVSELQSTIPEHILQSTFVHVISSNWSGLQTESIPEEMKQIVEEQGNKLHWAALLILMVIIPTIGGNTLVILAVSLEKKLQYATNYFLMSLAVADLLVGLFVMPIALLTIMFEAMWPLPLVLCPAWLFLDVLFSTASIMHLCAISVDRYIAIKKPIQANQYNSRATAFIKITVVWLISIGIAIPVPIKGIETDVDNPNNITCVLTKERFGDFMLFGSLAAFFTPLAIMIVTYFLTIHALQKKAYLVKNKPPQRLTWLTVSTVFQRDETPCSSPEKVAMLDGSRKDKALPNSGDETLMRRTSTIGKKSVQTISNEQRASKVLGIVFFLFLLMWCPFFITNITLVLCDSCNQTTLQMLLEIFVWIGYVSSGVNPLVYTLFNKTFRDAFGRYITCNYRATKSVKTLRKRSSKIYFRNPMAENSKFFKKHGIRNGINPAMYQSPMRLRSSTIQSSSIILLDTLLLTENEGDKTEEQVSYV

Human TAAR1 = tested on: Human TAAR1; set-up: method as in Simmler et al. (2016); details: ref Simmler et al. (2016); read-out: Human TAAR1 Activation Potency EC50 ± SD; cited from earlier work
dopaminergic D2 receptor = dopaminergic D2 receptor (Homo sapiens, UniProt P14416); assay: Receptor binding, [3H]-spiperone
dopaminergic D2 receptor, sequence (P14416 whole entry): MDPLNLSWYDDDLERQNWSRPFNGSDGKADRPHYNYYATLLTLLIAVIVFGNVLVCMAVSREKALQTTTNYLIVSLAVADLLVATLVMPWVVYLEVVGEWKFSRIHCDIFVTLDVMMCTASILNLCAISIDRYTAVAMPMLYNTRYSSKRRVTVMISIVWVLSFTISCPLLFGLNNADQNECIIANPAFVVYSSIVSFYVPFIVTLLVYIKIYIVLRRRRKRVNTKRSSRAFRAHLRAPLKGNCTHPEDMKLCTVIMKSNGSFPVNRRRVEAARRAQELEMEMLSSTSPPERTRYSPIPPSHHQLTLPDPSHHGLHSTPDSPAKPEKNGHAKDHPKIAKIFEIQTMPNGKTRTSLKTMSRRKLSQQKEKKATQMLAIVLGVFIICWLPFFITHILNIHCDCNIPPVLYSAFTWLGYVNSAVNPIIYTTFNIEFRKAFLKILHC
From the text: Table 3 Monoamine transporter and receptor binding affinities of pyrovalerone and NEH. | column: D2 / Receptor Binding / Ki ± SD [μM] / [^3H]-Spiperone

hSERT [5] = target: T1, hSERT; assay: Transporter binding, [3H]-citalopram
hDAT [6] = target: T2, hDAT; assay: Transporter binding, [3H]-WIN-35,428
hNET = hNET (Homo sapiens, UniProt P23975); assay: Transporter binding, N-methyl-[3H]-nisoxetine
hNET, sequence (P23975 whole entry): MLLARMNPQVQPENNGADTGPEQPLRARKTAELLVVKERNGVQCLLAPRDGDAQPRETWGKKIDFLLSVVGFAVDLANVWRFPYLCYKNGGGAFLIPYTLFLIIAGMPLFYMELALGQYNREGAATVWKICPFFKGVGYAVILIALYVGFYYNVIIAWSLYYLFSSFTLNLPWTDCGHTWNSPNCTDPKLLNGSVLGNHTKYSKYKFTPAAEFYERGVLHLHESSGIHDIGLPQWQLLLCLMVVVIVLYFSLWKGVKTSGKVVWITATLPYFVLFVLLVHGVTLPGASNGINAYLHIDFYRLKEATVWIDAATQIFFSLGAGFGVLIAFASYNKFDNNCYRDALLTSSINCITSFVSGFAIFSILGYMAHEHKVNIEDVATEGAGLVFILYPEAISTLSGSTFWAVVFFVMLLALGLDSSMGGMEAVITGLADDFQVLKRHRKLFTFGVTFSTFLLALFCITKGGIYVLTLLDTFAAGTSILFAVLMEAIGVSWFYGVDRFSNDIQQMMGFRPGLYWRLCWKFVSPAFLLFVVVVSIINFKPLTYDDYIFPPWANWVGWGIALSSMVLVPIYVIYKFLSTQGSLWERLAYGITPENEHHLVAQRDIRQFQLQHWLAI
From the text: Table 3 Monoamine transporter and receptor binding affinities of pyrovalerone and NEH. | column: hNET / Receptor Binding / Ki ± SD [μM] / N-Methyl-[^3H]-nisoxetine

adrenergic α2A receptor = target: T5, adrenergic α2A receptor (Homo sapiens, UniProt P08913); assay: Receptor binding, [3H]-rauwolscine
T5 sequence (P08913 1-465): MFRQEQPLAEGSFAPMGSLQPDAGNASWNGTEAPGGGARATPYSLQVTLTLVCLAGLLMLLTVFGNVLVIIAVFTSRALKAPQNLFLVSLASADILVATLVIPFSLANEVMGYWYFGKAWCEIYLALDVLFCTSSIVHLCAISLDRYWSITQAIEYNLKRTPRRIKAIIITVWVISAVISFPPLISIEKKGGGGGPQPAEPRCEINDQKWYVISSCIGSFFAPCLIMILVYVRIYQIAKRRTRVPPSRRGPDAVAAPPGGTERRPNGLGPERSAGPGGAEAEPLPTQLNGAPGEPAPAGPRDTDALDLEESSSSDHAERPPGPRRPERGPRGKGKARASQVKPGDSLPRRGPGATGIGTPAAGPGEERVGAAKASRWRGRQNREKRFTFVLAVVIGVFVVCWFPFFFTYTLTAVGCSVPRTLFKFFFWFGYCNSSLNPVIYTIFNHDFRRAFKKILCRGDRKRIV
From the text: Table 3 Monoamine transporter and receptor binding affinities of pyrovalerone and NEH. | column: α2A / Receptor Binding / Ki ± SD [μM] / [^3H]-Rauwolscine

| SMILES | Transporter-mediated monoamine efflux (5-HT) vs citalopram (hSERT [1]) | Transporter-mediated monoamine efflux (DA) vs mazindol (hDAT [2]) | further results |
| --- | --- | --- | --- |
| CCC(C(=O)c1ccc(F)cc1)N1CCCC1 (stereo not drawn) [4F-PBP, 4-fluoro-α-pyrrolidinobutiophenone] | did not induce any monoamine efflux | did not induce any monoamine efflux |  |
| CCCCC(C(=O)c1ccc(C)cc1)N1CCCC1 (stereo not drawn) [MPHP, 4-methyl-α-pyrrolidinohexanophenone] | no monoamine efflux was observed | no monoamine efflux was observed |  |
| CCCC(C(=O)c1ccccc1)N1CCCC1 (stereo not drawn) [α-PVP, α-pyrrolidinopentiophenone] | did not induce any monoamine efflux | did not induce any monoamine efflux |  |
| CNC(C)Cc1ccc2c(c1)OCO2 (centres unmarked) [MDMA, 3,4-methylenedioxymethamphetamine, reference compound] | causes significant release at the transporters | causes significant release at the transporters | EC50 (h5-HT2A receptor [3]): 6.1 ± 0.3 µM; Ki (h5-HT2A receptor [4]): 6.3 ± 2.4 µM; EC50 (h5-HT2B receptor): > 20 µM; EC50 (Human TAAR1): 35 ± 21 µM |
| Cc1ccc(C(=O)C(C)N2CCCC2)cc1 (stereo not drawn) [4-MePPP, 4-methyl-α-pyrrolidinopropiophenone] | no monoamine efflux was observed | no monoamine efflux was observed | Ki (dopaminergic D2 receptor): > 13 µM; Ki (hSERT [5]): > 7.4 µM; Ki (hDAT [6]): 0.3 ± 0.02 µM; Ki (hNET): 2.5 ± 0.7 µM; Ki (adrenergic α2A receptor): > 4.7 µM |
| CCCCC(C(=O)c1ccccc1)N1CCCC1 (stereo not drawn) [α-PHP, α-pyrrolidinohexanophenone] | did not induce any monoamine efflux | did not induce any monoamine efflux |  |
| CCCC(C(=O)c1ccc2c(c1)OCO2)N1CCCC1 (centres unmarked) [MDPV, 3,4-methylenedioxypyrovalerone] |  |  | EC50 (Human TAAR1): > 30 µM |
| CCCCC(NCC)C(=O)c1ccccc1 (centres unmarked) [NEH, N-ethylamine-hexanophenone] | did not produce any monoamine efflux; also recorded: did not induce any monoamine efflux | did not produce any monoamine efflux; also recorded: did not induce any monoamine efflux |  |
| CC(C(=O)c1ccccc1)N1CCCC1 (stereo not drawn) [α-PPP, α-pyrrolidinopropiophenone] | did not induce any monoamine efflux | did not induce any monoamine efflux |  |
